Data reported in paper PMC6580371 (ACS Medicinal Chemistry Letters, 2019).
Read-outs that look alike come from different tables or passages of the source.

Assays:
[1] = format: in vitro ADME; conditions: rat
[2] = format: in vitro ADME; conditions: monkey
[3] = format: in vivo; conditions: all species (rat, dog, monkey)
[4] = in vivo; conditions: dog, po, 2 mg/kg
[5] = format: in vitro ADME; conditions: human
[6] = in vivo; conditions: monkey, iv

Question: Which predicted human clearance does the source give for `O=C(N[C@H]1CCc2cc(F)cc(F)c2NC1=O)c1n[nH]c(Cc2ccccc2)n1` [Compound 6, (S)-5-benzyl-N-(7,9-difluoro-2-oxo-2,3,4,5-tetrahydro-1H-benzo[b]azepin-3-yl)-1H-1,2,4-triazole-3-carboxamide] here?
Answer: low clearance

Question: And the predicted human volume?
Answer: moderate volume

Question: What about the “predicted human AUC” value (40 mg twice daily) of the same molecule?
Answer: 1.7 µg·h/mL

Question: And the “predicted human AUC” value (273 mg daily)?
Answer: 11.7 µg·h/mL

Question: What about the “predicted human terminal half-life” value (human) of the same molecule?
Answer: ~3.3 h

Question: What about the turnover in hepatocytes [1] of the same molecule?
Answer: moderate turnover

Question: And the turnover in hepatocytes [2]?
Answer: low turnover

Question: What about the “clearance as % liver blood flow” value [3] of the same molecule?
Answer: ≤ 35 % liver blood flow

Question: What about the Cmax [4] of the same molecule?
Answer: 0.91 ± 0.13 µg/mL

Question: What about the turnover in hepatocytes [5] of the same molecule?
Answer: low turnover

Question: What about the clearance [6] of the same molecule?
Answer: 0.384 ± 0.03 L/h/kg
